This is an account of results in publication PMC6920357, “CETSA-based target engagement of taxanes as biomarkers for efficacy and resistance” (Scientific Reports, 2019).

Structures are written as SMILES. Like-named read-outs stand apart in the source and are kept apart here.

As a reminder, the EC50 is the concentration needed to bring the measured effect to its halfway point.

The test system of this assay is T1, β-tubulin.
T1 construct: gene TUBB; endogenous untagged beta-tubulin (isotypes not resolved) in microtubules with alpha-tubulin, intact human cancer cells
The assay is described as follows: isothermal dose response CETSA, AlphaLISA. The format is cell-based. A general note: In Alpha technology, singlet oxygen from a donor bead excites a nearby acceptor bead.

As to `CC(=O)O[C@@]12CO[C@@H]1C[C@H](O)[C@@]1(C)C(=O)[C@H](O)C3=C(C)[C@@H](OC(=O)[C@H](O)[C@@H](NC(=O)OC(C)(C)C)c4ccccc4)C[C@@](O)([C@@H](OC(=O)c4ccccc4)[C@H]21)C3(C)C` [docetaxel], the EC50 (intact K562-P cells, 1 h 45 min at 37 °C, heated 63 °C 3 min, no tariquidar, taxane site, read-out: EC50) came out at 300 ± 80 nM.

Turning to `CC(=O)O[C@H]1C(=O)[C@@]2(C)[C@H]([C@H](OC(=O)c3ccccc3)[C@]3(O)C[C@H](OC(=O)[C@H](O)[C@@H](NC(=O)c4ccccc4)c4ccccc4)C(C)=C1C3(C)C)[C@]1(OC(C)=O)CO[C@@H]1C[C@@H]2O` [paclitaxel], the midpoint of the response, the EC50, lay at 1550 ± 300 nM.

With `CCC1=C[C@@H]2CN(C1)Cc1c([nH]c3ccccc13)[C@@](C(=O)OC)(c1cc3c(cc1OC)N(C)[C@H]1[C@@](O)(C(=O)OC)[C@H](OC(C)=O)[C@]4(CC)C=CCN5CC[C@]31[C@@H]54)C2` [vinorelbine], the EC50 (intact PC346C prostate cancer cells, heated 63 °C, vinca site, read-out: EC50) was found to be 2020 ± 310 nM.
